Source: patent US6605619B1, “Nitroxides as protectors against oxidatives stress” (The United States of America as represented by the …, priority 1992, dated 2003)

Experiments:
[1] = test system: Chinese hamster V79 cells; assay: Protection of cells exposed to HX/XO, clonogenic survival; format: cell-based; conditions: 0.05 U/ml XO + 0.5 mM HX, 37° C.; 5 mM nitroxide; 100 U/ml catalase; SOD; 500 μM DF preincubated 2 h
Description: Chinese hamster V79 cells were grown in F12 medium supplemented with 10% fetal calf serum, penicillin, and streptomycin. Survival was assessed in all studies by the clonogenic assay. The plating efficiency range between 80-90%. Stock cultures of exponentially growing cells were trypsinized, rinsed, and plated (5×10^5 cells/dish) into a number of 100 mm petri dishes and incubated 16 h at 37° C. prior to experimental protocols. Cells were exposed for 1 h at 37° C. to either 0.5 mM hypoxanthine (HX)+0.05 U/ml of xanthine oxidase (XO) for varying lengths of time, or to H2O2 at different concentrations. To assess possible modulation in cytotoxicity, catalase, 100 U/ml; SOD, 100 μg/ml; DF, 500 μM; and 5 mM of each of the nitroxides from Table 1 were added to parallel cultures. CHD was prepared in a stock solution in ethanol and diluted into medium such that the final concentration was 5 mM. […] TEMPOL is water soluble and was prepared directly in tissue culture medium. […] DF was added either 2 h prior to or during treatment while the other agents were present only during HX/XO or H2O2 treatment. Following treatment, cells were rinsed, trypsinized, counted, and plated for macroscopic colony formation. For each dose determination cells were plated in triplicate and the experiments were repeated a minimum of two times. Plates were incubated 7 days, after which colonies were fixed with methanol/acetic acid, stained with crystal violet, and counted. Colonies containing >50 cells were scored. Error bars represent S.D. of the mean and are shown when larger than the symbol.

[2] = H2O2 accumulation and decay in tissue culture exposed to HX/XO (H2O2 selective electrode); format: cell-based, Chinese hamster; conditions: presence of CHD
Description: Chinese hamster V79 cells were plated in full medium and incubated at 37° C. with 5 mM HX+0.04 U/ml XO, sampled at various time points, and assayed for H2O2 using a hydrogen peroxide selective electrode.
Hydrogen peroxide was assayed using a YSI Model 27 Industrial Analyzer (Yellow Springs Instruments) equipped with a selective electrode for H2O2. For analysis of cellular preparations, the cells, except during the brief time required for removal of aliquots for analysis, were kept in T25 culture flasks maintained at 37° C. in complete medium (pH 7.2). Aliquots of 25 μl were sampled from the reaction or cell preparation system at varying time points and injected into the analyzer. [H2O2] was determined after calibrating the instrument with known concentrations of H2O2. The concentrations of standard H2O2 solutions were calibrated using iodometric assay (Hochanadel, J. Phys. Chem., 56, 587-594, 1952).

With `CC1(C)CN([O])C2(CCCCC2)O1` [CHD, 2-spirocyclohexane-5,5-dimethyl-3-oxazolidinoxyl] the “cell survival / protection from HX/XO” value [1] was “fully protected” and the “pattern of H2O2 generation by HX/XO” value [2] was “did not significantly alter”.
